# Measurements published in ChEMBL document CHEMBL1201862, “PubChem BioAssay data set” (2004).
#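 Dose response: 5 concentrations. Exposure: 48 h. Format: 96-well plates. Endpoint: linear interpolation; highest concentration if not reached. GI50 is the concentration that inhibits growth by half.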 Calls of active or inactive are those of the source. Cut-off read from the data, not from the text of the source: active = GI50 up to about 1.1 µM and inactive = higher.
# Legend:
# Assay in all cases: NCI tumour cell line growth inhibition, 48 h
# SW-620 = tested on: SW-620
# A549 = tested on: A549
# KM12 = tested on: KM12
# OVCAR-4 = tested on: OVCAR-4
# RPMI-8226 = tested on: RPMI-8226
# SK-MEL-5 = tested on: SK-MEL-5
# DMS-114 = tested on: DMS-114
# IGROV-1 = tested on: IGROV-1
# UACC-62 = tested on: UACC-62
# HCT-15 = tested on: HCT-15
# SN12C = tested on: SN12C
# ACHN = tested on: ACHN
# CCRF-CEM = tested on: CCRF-CEM
# M14 = tested on: M14
# HOP-62 = tested on: HOP-62
# NCI-H23 = tested on: NCI-H23
# HOP-92 = tested on: HOP-92
# HCT-116 = tested on: HCT-116
# MDA-MB-231 = tested on: MDA-MB-231
# MDA-MB-435 = tested on: MDA-MB-435
SMILES,GI50 (SW-620),GI50 (A549),GI50 (KM12),GI50 (OVCAR-4),GI50 (RPMI-8226),GI50 (SK-MEL-5),GI50 (DMS-114),GI50 (IGROV-1),GI50 (UACC-62),GI50 (HCT-15) [µM],GI50 (SN12C),GI50 (ACHN),GI50 (CCRF-CEM),GI50 (M14),GI50 (HOP-62),GI50 (NCI-H23),GI50 (HOP-92),GI50 (HCT-116),GI50 (MDA-MB-231),GI50 (MDA-MB-435)
Nc1c(-c2nc3ccccc3[nH]2)sc(=S)n1-c1ccc(Cl)cc1,39.5 µM (inactive),23.5 µM (inactive),28.6 µM (inactive),20 µM (inactive),28.1 µM (inactive),26 µM (inactive),18.6 µM (inactive),28.6 µM (inactive),16.1 µM (inactive),25.4,21.4 µM (inactive),17.7 µM (inactive),41.1 µM (inactive),30.3 µM (inactive),25.6 µM (inactive),36.6 µM (inactive),,,,
OCC(O)COc1ccc(F)cc1 (centres undefined),> 100 µM (inactive),> 100 µM (inactive),> 100 µM (inactive),> 100 µM (inactive),,> 100 µM (inactive),> 100 µM (inactive),> 100 µM (inactive),> 100 µM (inactive),> 100,> 100 µM (inactive),> 100 µM (inactive),> 100 µM (inactive),> 100 µM (inactive),> 100 µM (inactive),> 100 µM (inactive),> 100 µM (inactive),> 100 µM (inactive),,
NC(=O)c1ncn2c1NCC1OC2C(O)C1O (centres undefined),> 100 µM (inactive),> 100 µM (inactive),> 100 µM (inactive),> 100 µM (inactive),,> 100 µM (inactive),> 100 µM (inactive),> 100 µM (inactive),> 100 µM (inactive),,> 100 µM (inactive),> 100 µM (inactive),> 100 µM (inactive),> 100 µM (inactive),> 100 µM (inactive),> 100 µM (inactive),> 100 µM (inactive),> 100 µM (inactive),,
NNC(=S)N/N=C(\CCCC(=O)NCCc1ccccc1)CC(=O)c1ccccc1,> 100 µM (inactive),> 100 µM (inactive),> 100 µM (inactive),> 100 µM (inactive),,> 100 µM (inactive),> 100 µM (inactive),> 100 µM (inactive),> 100 µM (inactive),> 100,> 100 µM (inactive),> 100 µM (inactive),,> 100 µM (inactive),> 100 µM (inactive),> 100 µM (inactive),> 100 µM (inactive),> 100 µM (inactive),,
CCCNC1=C(C)C(=O)C2=C(C1=O)[C@H](COC(N)=O)[C@]1(OC)[C@@H]3N[C@@H]3CN21,3.73 µM (inactive),0.43 µM (active),8.85 µM (inactive),6.93 µM (inactive),7.18 µM (inactive),0.65 µM (active),4 µM (inactive),5.04 µM (inactive),0.472 µM (active),4.01,2.42 µM (inactive),,3.16 µM (inactive),,0.303 µM (active),0.861 µM (active),8.57 µM (inactive),3.69 µM (inactive),,
O=P(Nc1ccccc1)(Oc1ccccc1)N(CCCl)CCCl (centres undefined),> 100 µM (inactive),94 µM (inactive),65.8 µM (inactive),> 100 µM (inactive),,39.4 µM (inactive),60.1 µM (inactive),> 100 µM (inactive),89.1 µM (inactive),> 100,> 100 µM (inactive),> 100 µM (inactive),37.8 µM (inactive),91.8 µM (inactive),> 100 µM (inactive),> 100 µM (inactive),26.4 µM (inactive),> 100 µM (inactive),,
CSCCC(NC(=O)C(Cc1ccccc1)NC(=O)CNC(=O)CNC(=O)C(N)Cc1ccc(O)cc1)C(=O)O (centres undefined),> 100 µM (inactive),> 100 µM (inactive),> 100 µM (inactive),> 100 µM (inactive),,> 100 µM (inactive),> 100 µM (inactive),> 100 µM (inactive),> 100 µM (inactive),> 100,> 100 µM (inactive),,> 100 µM (inactive),,> 100 µM (inactive),> 100 µM (inactive),> 100 µM (inactive),> 100 µM (inactive),,
COc1ccc(OC(C)C(=O)O)c2c(=O)ccccc12 (centres undefined),> 100 µM (inactive),> 100 µM (inactive),> 100 µM (inactive),> 100 µM (inactive),> 100 µM (inactive),> 100 µM (inactive),> 100 µM (inactive),> 100 µM (inactive),> 100 µM (inactive),> 100,> 100 µM (inactive),> 100 µM (inactive),> 100 µM (inactive),> 100 µM (inactive),> 100 µM (inactive),> 100 µM (inactive),,,,
COc1ccc(OC)c(CC(C)N)c1 (centres undefined),> 100 µM (inactive),> 100 µM (inactive),> 100 µM (inactive),> 100 µM (inactive),> 100 µM (inactive),> 100 µM (inactive),> 100 µM (inactive),> 100 µM (inactive),> 100 µM (inactive),> 100,> 100 µM (inactive),> 100 µM (inactive),> 100 µM (inactive),> 100 µM (inactive),> 100 µM (inactive),> 100 µM (inactive),,> 100 µM (inactive),,
CN1C(=O)c2ccccc2OC12C=Cc1c(ccc3ccccc13)O2 (centres undefined),3.64 µM (inactive),3.47 µM (inactive),2.21 µM (inactive),5.56 µM (inactive),3.02 µM (inactive),6.05 µM (inactive),,3.5 µM (inactive),5.19 µM (inactive),2.95,15.2 µM (inactive),3.1 µM (inactive),3.83 µM (inactive),3.03 µM (inactive),4.29 µM (inactive),4.05 µM (inactive),1.85 µM (inactive),4.02 µM (inactive),13.1 µM (inactive),2.29 µM (inactive)
C(/C=N/c1ccccc1)=C(/Nc1ccccc1)c1ccc2ccccc2c1,3.88 µM (inactive),4.08 µM (inactive),1.78 µM (inactive),1.99 µM (inactive),1.79 µM (inactive),2.63 µM (inactive),,2.88 µM (inactive),0.548 µM (active),1.06,1.6 µM (inactive),2.39 µM (inactive),1.1 µM (active),1.87 µM (inactive),1.82 µM (inactive),2.13 µM (inactive),9.62 µM (inactive),1.87 µM (inactive),1.29 µM (inactive),0.299 µM (active)
O=C1OC(c2ccccc2)=N/C1=C\c1ccc([N+](=O)[O-])cc1,> 100 µM (inactive),82 µM (inactive),54.8 µM (inactive),34.5 µM (inactive),30.2 µM (inactive),66.8 µM (inactive),,27.9 µM (inactive),26.5 µM (inactive),> 100,> 100 µM (inactive),14.3 µM (inactive),13.8 µM (inactive),> 100 µM (inactive),30.1 µM (inactive),24.5 µM (inactive),16.1 µM (inactive),98.6 µM (inactive),44.6 µM (inactive),> 100 µM (inactive)
CCc1nnc(S)n1/N=C\c1ccc(-c2ccccc2Cl)o1,27.7 µM (inactive),32.6 µM (inactive),28.8 µM (inactive),39.4 µM (inactive),20.5 µM (inactive),14.3 µM (inactive),,38.7 µM (inactive),40.6 µM (inactive),28.2,37.2 µM (inactive),60.8 µM (inactive),27.5 µM (inactive),33.2 µM (inactive),90.2 µM (inactive),26.4 µM (inactive),33.2 µM (inactive),23.8 µM (inactive),42.2 µM (inactive),21 µM (inactive)
CCCCCOC(=O)c1cc2cc(CCl)ccc2oc1=O,12.1 µM (inactive),1.97 µM (inactive),13.6 µM (inactive),4.13 µM (inactive),18.9 µM (inactive),2.62 µM (inactive),,10.3 µM (inactive),1.64 µM (inactive),3.69,9.59 µM (inactive),0.537 µM (active),13.1 µM (inactive),1.51 µM (inactive),8.28 µM (inactive),1.5 µM (inactive),2.62 µM (inactive),10.1 µM (inactive),16.5 µM (inactive),1.85 µM (inactive)
CCOC(=O)c1c(N/C(S)=N/c2ccccc2)sc2c1CCOC2,> 100 µM (inactive),53.1 µM (inactive),69.5 µM (inactive),61.5 µM (inactive),55.5 µM (inactive),53.1 µM (inactive),,27.5 µM (inactive),28.9 µM (inactive),46.7,48.8 µM (inactive),97.3 µM (inactive),63.7 µM (inactive),39.1 µM (inactive),92 µM (inactive),26.4 µM (inactive),24.9 µM (inactive),37.2 µM (inactive),> 100 µM (inactive),56.6 µM (inactive)
NC(=O)C1CCCN1C(=O)C(Cc1c[nH]cn1)NC(=O)C1CCCC1 (centres undefined),> 100 µM (inactive),> 100 µM (inactive),> 100 µM (inactive),> 100 µM (inactive),> 100 µM (inactive),> 100 µM (inactive),,> 100 µM (inactive),> 100 µM (inactive),> 100,> 100 µM (inactive),> 100 µM (inactive),> 100 µM (inactive),> 100 µM (inactive),> 100 µM (inactive),> 100 µM (inactive),> 100 µM (inactive),> 100 µM (inactive),> 100 µM (inactive),> 100 µM (inactive)
